Test results published in PubChem BioAssay (NCI).
Where “and” joins values, the source holds several entries; their conditions need not be identical. Identical values can stand only once.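 Dose response: 5 concentrations. Exposure: 48 h. Format: 96-well plates. Endpoint: linear interpolation; highest concentration if not reached. GI50: concentration for 50% inhibition of growth. TGI denotes the concentration required for complete inhibition of growth.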

Key:
Assay in all cases: NCI anticancer screen, dose series, 48 h
786-0 renal = test system: 786-0 renal
A549 NSCLC = test system: A549 NSCLC
DU-145 prostate = test system: DU-145 prostate
HCT-116 colon = test system: HCT-116 colon
IGROV1 ovarian = test system: IGROV1 ovarian
LOX IMVI melanoma = test system: LOX IMVI melanoma
NCI-H226 lung = test system: NCI-H226 lung
OVCAR-8 ovarian = test system: OVCAR-8 ovarian
SK-OV-3 ovarian = test system: SK-OV-3 ovarian
U251 CNS = test system: U251 CNS

## Cc1cc(NCCCN(C)C)c2ccc3c(ccc4c(NCCCN(C)C)cc(C)nc43)c2n1
786-0 renal
  GI50: 202 nM
  TGI: 506 nM
A549 NSCLC
  GI50: 64.3 nM
  TGI: 411 nM
DU-145 prostate
  GI50: 159 nM
  TGI: 436 nM
HCT-116 colon
  GI50: 170 nM
  TGI: 439 nM
IGROV1 ovarian
  GI50: 152 nM
  TGI: 377 nM
LOX IMVI melanoma
  GI50: 176 nM
  TGI: 401 nM
NCI-H226 lung
  GI50: 215 nM
  TGI: 880 nM
OVCAR-8 ovarian
  GI50: 114 nM
  TGI: 295 nM
SK-OV-3 ovarian
  GI50: 230 nM
  TGI: 507 nM
U251 CNS
  GI50: 199 nM
  TGI: 541 nM

## CN(C)CCN1C(=O)c2c(c3c4ccccc4n4c3c3c2c2ccccc2n3C2CC(O)C(O)C4(C)O2)C1=O (stereo unspecified)
786-0 renal
  GI50: 1930 nM
  TGI: 8370 nM
A549 NSCLC
  GI50: 643 nM
  TGI: 7400 nM
DU-145 prostate
  GI50: 1120 nM
  TGI: 9420 nM
HCT-116 colon
  GI50: 626 nM
  TGI: 6710 nM
IGROV1 ovarian
  GI50: 1410 nM
  TGI: 13100 nM
LOX IMVI melanoma
  GI50: 448 nM
  TGI: 1890 nM
NCI-H226 lung
  GI50: 2260 nM
  TGI: 29000 nM
OVCAR-8 ovarian
  GI50: 1470 nM
  TGI: 9390 nM
SK-OV-3 ovarian
  GI50: 1800 nM
  TGI: 9900 nM
U251 CNS
  GI50: 1040 nM
  TGI: 7290 nM

## O=C(C/C(=N/O)C(=O)NC1=C(Cl)C(=O)c2ccccc2C1=O)CC(c1ccccc1)c1c(O)c2ccccc2oc1=O (stereo unspecified)
786-0 renal
  TGI: > 100000 nM
A549 NSCLC
  TGI: 35300 nM
DU-145 prostate
  TGI: 11200 nM
HCT-116 colon
  TGI: 20600 nM
IGROV1 ovarian
  TGI: > 100000 nM
LOX IMVI melanoma
  TGI: > 100000 nM
NCI-H226 lung
  TGI: 20300 nM
OVCAR-8 ovarian
  TGI: > 100000 nM
SK-OV-3 ovarian
  TGI: > 100000 nM
U251 CNS
  TGI: > 100000 nM

## O=C1OCC2=C1C(c1cccc(Cl)c1)c1cc3c(cc1N2CCO)OCCO3 (stereo unspecified)
786-0 renal
  GI50: 64 nM
  TGI: 5500 nM
A549 NSCLC
  GI50: 132 nM
  TGI: 4350 nM
DU-145 prostate
  GI50: 152 nM
  TGI: 1310 nM
HCT-116 colon
  GI50: 56.6 nM
  TGI: 4010 nM
IGROV1 ovarian
  GI50: 79.2 nM
  TGI: > 47400 nM
LOX IMVI melanoma
  GI50: 68.9 nM
  TGI: 17900 nM
NCI-H226 lung
  GI50: 84.5 nM
  TGI: 1850 nM
OVCAR-8 ovarian
  GI50: 176 nM
  TGI: 4330 nM
SK-OV-3 ovarian
  GI50: 54.8 nM
  TGI: 1960 nM
U251 CNS
  GI50: 54.2 nM
  TGI: 7140 nM

## COc1ccc(C/C(C)=C(/c2ccc(OCCN3CCCCC3)cc2)c2ccc(OC(=O)NCc3ccccc3)cc2)cc1
786-0 renal
  GI50: 316 nM
  TGI: 674 nM
A549 NSCLC
  GI50: 413 nM
  TGI: 821 nM
DU-145 prostate
  GI50: 442 nM
  TGI: 805 nM
HCT-116 colon
  GI50: 330 nM
  TGI: 698 nM
IGROV1 ovarian
  GI50: 424 nM
  TGI: 859 nM
LOX IMVI melanoma
  GI50: 421 nM
  TGI: 779 nM
NCI-H226 lung
  GI50: 441 nM
  TGI: 868 nM
OVCAR-8 ovarian
  GI50: 472 nM
  TGI: 937 nM
SK-OV-3 ovarian
  GI50: 436 nM
  TGI: 838 nM
U251 CNS
  GI50: 403 nM
  TGI: 791 nM

## COc1cccc(N2C(=O)C3c4[nH]c5ccccc5c4C4CCCC4C3C2=O)c1 (stereo unspecified)
786-0 renal
  TGI: 4410 nM
A549 NSCLC
  TGI: > 10000 nM
DU-145 prostate
  TGI: > 10000 nM
HCT-116 colon
  TGI: 7160 nM
IGROV1 ovarian
  TGI: > 10000 nM
LOX IMVI melanoma
  TGI: > 10000 nM
NCI-H226 lung
  TGI: 7590 nM
OVCAR-8 ovarian
  TGI: > 10000 nM
SK-OV-3 ovarian
  TGI: > 10000 nM
U251 CNS
  TGI: > 10000 nM

## COc1cccc(-c2c[nH]c3c(N/N=C/c4ccncc4)ncnc23)c1
786-0 renal
  GI50: 1260 nM
  TGI: 18600 nM
A549 NSCLC
  GI50: 2670 nM
  TGI: 10100 nM
DU-145 prostate
  GI50: 2230 nM
  TGI: > 15200 nM
HCT-116 colon
  GI50: 1240 nM
  TGI: 5360 nM
IGROV1 ovarian
  GI50: 3900 nM
  TGI: > 25000 nM
LOX IMVI melanoma
  GI50: 1270 nM
  TGI: 6730 nM
NCI-H226 lung
  GI50: 1750 nM
  TGI: > 16000 nM
OVCAR-8 ovarian
  GI50: 2570 nM
  TGI: 11800 nM
SK-OV-3 ovarian
  GI50: 903 nM
  TGI: 3910 nM
U251 CNS
  GI50: 2130 nM
  TGI: 7940 nM

## C[C@@H]1[C@H](C)N1CC(O)Cn1ccnc1[N+](=O)[O-] (stereo partly specified)
786-0 renal
  TGI: > 100000 nM
A549 NSCLC
  TGI: > 100000 nM
DU-145 prostate
  TGI: > 100000 nM
HCT-116 colon
  TGI: > 100000 nM
IGROV1 ovarian
  TGI: > 100000 nM
LOX IMVI melanoma
  TGI: > 100000 nM
NCI-H226 lung
  TGI: > 100000 nM
OVCAR-8 ovarian
  TGI: > 100000 nM
SK-OV-3 ovarian
  TGI: > 100000 nM
U251 CNS
  TGI: > 100000 nM

## COc1ccc(CCN2CC=Cn3c2nc2ccccc2c3=O)cc1
786-0 renal
  GI50: 44.5 nM
  TGI: 31600 nM
A549 NSCLC
  GI50: 38 nM
  TGI: > 49100 nM
DU-145 prostate
  GI50: 37.4 nM
  TGI: > 23300 nM
HCT-116 colon
  GI50: 34.7 nM
  TGI: > 100000 nM
IGROV1 ovarian
  GI50: 50.9 nM
  TGI: > 50300 nM
LOX IMVI melanoma
  GI50: 58.5 nM
  TGI: > 40100 nM
NCI-H226 lung
  GI50: 101 nM
  TGI: > 85800 nM
OVCAR-8 ovarian
  GI50: 54 nM
  TGI: > 41000 nM
SK-OV-3 ovarian
  GI50: 55.9 nM
  TGI: > 89700 nM
U251 CNS
  GI50: 36.8 nM
  TGI: > 100000 nM

## C[C@H]1CC[C@@]2(NC1)O[C@H]1C[C@H]3[C@@H]4CC[C@H]5C[C@@H](O)CC[C@]5(C)[C@H]4CC[C@]3(C)[C@H]1[C@@H]2C
786-0 renal
  GI50: 9230 nM
  TGI: 18700 nM and > 100000 nM
A549 NSCLC
  GI50: 19600 nM
  TGI: 50000 nM and > 100000 nM
DU-145 prostate
  GI50: 30300 nM
  TGI: 50000 nM and > 100000 nM
HCT-116 colon
  GI50: 8320 nM
  TGI: 17300 nM and > 100000 nM
IGROV1 ovarian
  GI50: 12300 nM
  TGI: 24500 nM and > 100000 nM
LOX IMVI melanoma
  GI50: 14400 nM
  TGI: 41800 nM and > 100000 nM
NCI-H226 lung
  GI50: 13800 nM
  TGI: 35800 nM and > 100000 nM
OVCAR-8 ovarian
  TGI: 50000 nM and > 100000 nM
SK-OV-3 ovarian
  GI50: 22700 nM
  TGI: 50000 nM and > 100000 nM
U251 CNS
  GI50: 11900 nM
  TGI: 33600 nM

## C=CCN=C(N/N=C/c1ccc([N+](=O)[O-])o1)NS(=O)(=O)c1cc(C(=O)Nc2ccc(Cl)cc2)c(Cl)cc1SC
786-0 renal
  GI50: 6940 nM
  TGI: > 100000 nM
A549 NSCLC
  GI50: > 37300 nM
  TGI: > 100000 nM
DU-145 prostate
  GI50: 2720 nM
  TGI: > 35200 nM
HCT-116 colon
  GI50: 935 nM
  TGI: 4040 nM
IGROV1 ovarian
  GI50: > 69900 nM
  TGI: > 100000 nM
LOX IMVI melanoma
  GI50: > 64100 nM
  TGI: > 100000 nM
NCI-H226 lung
  GI50: 13500 nM
  TGI: > 100000 nM
OVCAR-8 ovarian
  TGI: > 20700 nM
SK-OV-3 ovarian
  GI50: > 100000 nM
  TGI: > 100000 nM
U251 CNS
  GI50: 3930 nM
  TGI: > 100000 nM

## O=c1cnn(C2OC(CO)C(O)C2O)c(=S)[nH]1 (stereo unspecified)
786-0 renal
  TGI: > 100000 nM
A549 NSCLC
  TGI: > 100000 nM
DU-145 prostate
  TGI: > 100000 nM
HCT-116 colon
  TGI: > 100000 nM
IGROV1 ovarian
  TGI: > 100000 nM
LOX IMVI melanoma
  TGI: > 68500 nM
NCI-H226 lung
  TGI: > 100000 nM
OVCAR-8 ovarian
  TGI: > 100000 nM
SK-OV-3 ovarian
  TGI: > 100000 nM
U251 CNS
  TGI: > 100000 nM

## CC1=NN(C(=O)c2ccccc2O)C(=O)/C1=C/c1ccc(O)cc1
786-0 renal
  TGI: > 100000 nM
A549 NSCLC
  TGI: > 100000 nM
DU-145 prostate
  TGI: > 100000 nM
HCT-116 colon
  TGI: > 100000 nM
IGROV1 ovarian
  TGI: 5030 nM
LOX IMVI melanoma
  TGI: > 82100 nM
NCI-H226 lung
  TGI: 41200 nM
OVCAR-8 ovarian
  TGI: > 100000 nM
SK-OV-3 ovarian
  TGI: > 100000 nM
U251 CNS
  TGI: > 100000 nM

## CC[C@@]1(O)C(=O)OCc2c1cc1n(c2=O)Cc2cc3cc4c(cc3nc2-1)OCO4
786-0 renal
  TGI: 2.74 nM
A549 NSCLC
  TGI: 177 nM and 136 nM
DU-145 prostate
  TGI: 5.72 nM
HCT-116 colon
  GI50: < 1 nM
  TGI: 136 nM and 1270 nM
IGROV1 ovarian
  GI50: < 34.1 nM
  TGI: 187 nM
LOX IMVI melanoma
  GI50: < 1 nM
  TGI: 109 nM and 50.6 nM
NCI-H226 lung
  TGI: 6.16 nM and < 38.7 nM
OVCAR-8 ovarian
  TGI: 369 nM
SK-OV-3 ovarian
  GI50: < 32.4 nM
U251 CNS
  TGI: 17.1 nM and 61.3 nM

## CN1CCN(C(=O)C(C)(C)c2ccc(C(=O)Nc3cn4cc(-c5ccncc5)ccc4n3)cc2)CC1
786-0 renal
  GI50: 539 nM
  TGI: > 100000 nM
A549 NSCLC
  GI50: 214 nM
  TGI: > 100000 nM
DU-145 prostate
  GI50: 319 nM
  TGI: 35200 nM
HCT-116 colon
  GI50: 80.2 nM
  TGI: > 100000 nM
IGROV1 ovarian
  GI50: 220 nM
  TGI: 6000 nM
LOX IMVI melanoma
  GI50: 215 nM
  TGI: 934 nM
NCI-H226 lung
  GI50: 320 nM
  TGI: 2510 nM
OVCAR-8 ovarian
  GI50: 347 nM
  TGI: > 100000 nM
SK-OV-3 ovarian
  GI50: 275 nM
  TGI: 17500 nM
U251 CNS
  GI50: 332 nM
  TGI: > 100000 nM
